From patent EP0593831A1, “Long-chain fatty alcohols as neurotrophic and memory improving agents” (MEDAFOR, priority 1992, dated 1994)

Tested on: neurones de cortex
Assay: Survival of cortex neurons in primary culture
Type: cell-based, rat
Settings: 10⁻⁵M; after 10 days of culture; versus control cells; p < 0,02, Student t (figure 3)
Excerpt: Les dérivés de l'invention ont été testés sur des neurones du système nerveux central en culture primaire. Les cultures sont préparées à partir de cerveaux d'embryons de rats. Les neurones proviennent de l'une des trois zones cérébrales suivantes: le cortex à partir d'embryons de 14 jours, l'hippocampe et le septum à partir d'embryons de 18 jours. Les cellules sont ensemencées à faible densité (10⁵ cellules/lamelle) sur des lamelles prétraitées avec de la poly-L-lysine. Les cellules sont maintenues dans un milieu de culture chimiquement défini. Les dérivés testés sont ajoutés le premier jour de la mise en culture des cellules à des doses variant de 10⁻⁹ M à 10⁻⁴ M. Le changement de milieu se fait tous les quatre jours avec addition des composés à tester.
On suit la survie des neurones en culture à l'aide d'un microscope en contraste de phase. De manière générale, les cellules témoins dégénèrent après 11 jours de culture alors que le nombre de cellules survivantes est significativement élevé dans les cultures traitées avec les dérivés de l'invention.
A titre d'exemple, l'effet du composé A₁, sur la survie des neurones de cortex est représenté sur la figure 3. Ce graphique représente le nombre de neurones survivants après 10 jours de culture.

## CC1=C(CCCCCCCCCCCO)C(C)(C)CCC1 [composé A₁]
  nombre de neurones survivants: significativement augmenté
